Results on two compounds are retold here after publication PMC10048095, “Sol-Gel Films Doped with Enzymes and Banana Crude Extract as Sensing Materials for Spectrophotometric Determination” (Gels, 2023).

The target of assay [1] is T1, Horseradish peroxidase (HRP) (Armoracia rusticana, UniProt P00433).
T1 construct: gene PRXC1A
T1 sequence (P00433 31-338): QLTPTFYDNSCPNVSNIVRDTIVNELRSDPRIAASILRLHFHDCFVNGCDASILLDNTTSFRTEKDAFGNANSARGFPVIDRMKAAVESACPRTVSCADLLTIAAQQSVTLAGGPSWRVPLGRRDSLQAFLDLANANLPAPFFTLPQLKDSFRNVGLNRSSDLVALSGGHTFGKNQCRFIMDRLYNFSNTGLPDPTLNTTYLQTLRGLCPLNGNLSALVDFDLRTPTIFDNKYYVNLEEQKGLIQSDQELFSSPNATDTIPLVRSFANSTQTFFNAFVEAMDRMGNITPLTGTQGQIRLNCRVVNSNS
Description: absorbance at […] nm, initial rates. The following applies: H2O2 as co-substrate; enzyme in solution and in sol-gel films; pH 6.0. The assay is classed as biochemical.

Assay [2] concerns T2, Mushroom tyrosinase (MT).
T2 construct: gene PPO3
The following applies: read-out: KM, mM / Solution; free enzyme in solution; pH 6.0 buffer; air oxygen.

Structures are written as SMILES.

Take `Cc1cc(-c2cc(C)c(N)c(C)c2)cc(C)c1N` [3,3′,5,5′-tetramethylbenzidine]: the “absorbance at 650 nm, initial rates” value in assay [1] is “hydrogen peroxide reduction with TMB oxidation”. In the case of `O=C(O)/C=C/c1ccc(O)c(O)c1` [Caffeic acid], in assay [2], the Km was 1.1 mM.
